B1: Evolocumab (antibody, chains of the INN, looked up, V domains shown)
VH: EVQLVQSGAEVKKPGASVKVSCKASGYTLTSYGISWVRQAPGQGLEWMGWVSFYNGNTNYAQKLQGRGTMTTDPSTSTAYMELRSLRSDDTAVYYCARGYGMDVWGQGTTVTVSS
VL: ESALTQPASVSGSPGQSITISCTGTSSDVGGYNSVSWYQQHPGKAPKLMIYEVSNRPSGVSNRFSGSKSGNTASLTISGLQAEDEADYYCNSYTSTSMVFGGGTKLTVL

What was measured:
[1] = tested on: LXR target genes (FAS and SREBP1) in hepatocytes; test: Expression of LXR target genes in hepatocytes (QPCR); format: cell-based, mouse; settings: 0.2 μM, 24 h
Protocol: FIG. 6A-6D. mDNP-LXR-L delivered LXR ligand appropriately increases gene expression leading to increased FC efflux. FIGS. 6A and 6B: MPMs (FIG. 6A) or Primary hepatocytes (FIG. 6B) were plated in 6-well culture dishes and incubated with either LXR ligand T0901317 or mDNP or mDNP-LXR-L (0.2 μM) for 24 h; untreated cells were used as Controls. Expression of LXR target genes (ABCA1 and ABCG1 in MPMs and FAS and SREBP1 in hepatocytes) was evaluated by QPCR using total RNA as described under “Methods”. Data (Mean±SD, n=3) are expressed as fold increase over Controls. FIG. 6C: MPMs were plated in 6-well plates were exposed to either LXR ligand T0901317 or mDNP or mDNP-LXR-L (0.2 μM) for 24 h. Cells were washed once with cold PBS and harvested in cold buffer on ice as described under “Methods”. Following disruption of cells by sonication and removal of cell debris, CEH activity was measured using a radiometric assay. CEH activity (Mean±SD, n=3) is expressed as % untreated Controls. FIG. 6D: MPMs, plated in 24-well plate, were loaded and labeled with [^3H]-cholesterol as described under “Methods”. During the 24 h equilibration, cells were exposed to either LXR ligand T0901317 or mDNP or mDNP-LXR-L (0.2 μM). FC efflux to medium containing 10% FBS was monitored for 8 and 24 h. Data (Mean±SD, n=6) are expressed as % efflux. *P<0.05 and NS—not significant. […]

[2] = tested on: atherosclerotic plaque volume in patients; settings: randomized controlled trial; cited from earlier work

Molecule | expression of FAS and SREBP1 [1] | decrease in atheroma volume [2] [%]
O=S(=O)(c1ccccc1)N(CC(F)(F)F)c1ccc(C(O)(C(F)(F)F)C(F)(F)F)cc1 [free LXR-L, T0901317] | significant increase | 
B1 |  | 0.95
